Experiment: Inhibition of ERK phosphorylation at Thr202/Tyr204 residues in human ASPC1 cells harboring KRAS G12D mutant […] incubated for 24 hrs by ELISA
Type: cell-based
Settings: ASPC1, 24 h

SMILES	IC50 [nM]
Cc1c(F)cc2c(cnn2C2CCCCO2)c1-c1c(C2CC2)cc2c(N3C[C@@H]4C[C@H]3CN4C(=O)OC(C)(C)C)nc(OC3COC3)nc2c1OCc1ccccc1 (stereo partly drawn)	6
Cc1c(F)cc2c(cnn2C2CCCCO2)c1-c1c(C2CC2)cc2c(N3C[C@@H]4C[C@H]3CN4C(=O)OC(C)(C)C)nc(OC3CCOCC3)nc2c1OCc1ccc(-c2cn([C@H](C(=O)N3C[C@H](O)C[C@H]3C(=O)N[C@H](CO)c3ccc(-c4ccnn4C)cc3)C(C)C)nn2)cc1 (stereo partly drawn)	11
Cc1ncsc1-c1ccc([C@@H](CO)NC(=O)[C@@H]2C[C@@H](O)CN2C(=O)[C@H](C(C)C)n2cc(-c3ccc(COc4c(-c5c(C)c(F)cc6c5cnn6C5CCCCO5)c(C5CC5)cc5c(N6C[C@@H]7C[C@H]6CN7C(=O)OC(C)(C)C)nc(OC6CCOCC6)nc45)cc3)nn2)cc1 (stereo partly drawn)	8
CC(C)(C)OC(=O)N1C[C@@H]2C[C@H]1CN2c1nc(OC2CCOCC2)nc2c(OCc3ccccc3)c(Br)c(C3CC3)cc12	15
Cc1ncsc1-c1ccc(C2(NC(=O)[C@@H]3C[C@@H](O)CN3C(=O)[C@H](C(C)C)n3cc(-c4ccc(COc5c(-c6c(C)c(F)cc7c6cnn7C6CCCCO6)c(C6CC6)cc6c(N7C[C@@H]8C[C@H]7CN8C(=O)OC(C)(C)C)nc(OC7CCOCC7)nc56)cc4)nn3)CC2)cc1 (stereo partly drawn)	7
CCSc1nc(N2C[C@@H]3C[C@H]2CN3C(=O)OC(C)(C)C)c2cc(C3CC3)c(Br)c(OCc3ccccc3)c2n1	26
CCCCCCCCCCCCSc1nc(N2C[C@@H]3C[C@H]2CN3C(=O)OC(C)(C)C)c2cc(C3CC3)c(Br)c(OCc3ccccc3)c2n1	18
CCSc1nc(N2C[C@@H]3C[C@H]2CN3C(=O)OC(C)(C)C)c2cc(I)c(Br)c(OCc3ccccc3)c2n1	17

Reference: ChEMBL document CHEMBL5614456, “Emerging Techniques in Cancer Therapy: Precision Targeting for Improved Outcomes” (ACS Med Chem Lett, 2024)
